Measurements: patent US20180155344A1, “TRICYCLIC PIPERIDINE COMPOUNDS” (ACTELION PHARMACEUTICALS LTD, priority 2015, published 2018)

Molecular target: T1, human TPH1 (Homo sapiens, UniProt P17752)
T1 sequence (P17752 1-444): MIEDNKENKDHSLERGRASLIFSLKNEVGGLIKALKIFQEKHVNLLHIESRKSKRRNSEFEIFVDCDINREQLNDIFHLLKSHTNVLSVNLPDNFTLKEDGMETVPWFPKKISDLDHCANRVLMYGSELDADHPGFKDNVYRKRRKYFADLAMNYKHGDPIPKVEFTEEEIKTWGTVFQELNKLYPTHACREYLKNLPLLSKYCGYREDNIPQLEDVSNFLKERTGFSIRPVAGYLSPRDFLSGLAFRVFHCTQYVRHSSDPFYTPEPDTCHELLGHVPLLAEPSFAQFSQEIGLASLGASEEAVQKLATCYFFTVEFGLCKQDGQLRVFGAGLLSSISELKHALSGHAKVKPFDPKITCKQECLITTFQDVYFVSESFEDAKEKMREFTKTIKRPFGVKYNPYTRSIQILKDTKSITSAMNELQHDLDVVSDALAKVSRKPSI
Assay: biochemical
Outline: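 Inhibition is derived from 5-hydroxy-L-tryptophan fluorescence (540 nm emission, 300 nm excitation) after perchloric acid stop, relative to DMSO vehicle. Recombinant full-length human enzyme (40-80 nM) reacts with 40 μM tryptophan plus 100 μM methyltetrahydropterin, pH 7.6 Tris/DTT/catalase, 15° C, 60 min.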

SMILES	IC50 [nM]
COc1ccc([C@@H]2c3c(nc4cc(Cl)ccn34)CCN2C(=O)COc2ccc(N3CCOCC3)cc2Cl)c(F)c1 [Example 2.3.4, 1-((1R)-7-chloro-1-(2-fluoro-4-methoxyphenyl)-3,10a-dihydroimidazo[1,2-a:5,4-c′]dipyridin-2(1H)-yl)-2-(2-chloro-4-morpholinophenoxy)ethan-1-one]	12
CS(=O)(=O)Nc1ccc(OCC(=O)N2CCc3nc4cc(Cl)ccn4c3C2c2ccc(Cl)cc2F)c(Cl)n1 (centres unmarked) [Example 2.4.1, N-(6-chloro-5-(2-(7-chloro-1-(4-chloro-2-fluorophenyl)-3,4-dihydroimidazo[1,2-a:5,4-c′]dipyridin-2(1H)-yl)-2-oxoethoxy)pyridin-2-yl)methanesulfonamide]	8
COc1ccc([C@@H]2c3c(nc4cc(Cl)ccn34)CCN2C(=O)COc2ccc(N3CCOCC3)cc2Cl)cn1 [Example 2.5.1, 1-((1R)-7-chloro-1-(6-methoxypyridin-3-yl)-3,10a-dihydroimidazo[1,2-a:5,4-c′]dipyridin-2(1H)-yl)-2-(2-chloro-4-morpholinophenoxy)ethan-1-one]	89
CC(C)c1noc(C2c3c(nc4cc(Cl)ccn34)CCN2C(=O)COc2ccc(N3CCOCC3)nc2Cl)n1 (centres unmarked) [Example 2.6.1, 1-(7-chloro-1-(3-isopropyl-1,2,4-oxadiazol-5-yl)-3,4-dihydroimidazo[1,2-a:5,4-c′]dipyridin-2(1H)-yl)-2-((2-chloro-6-morpholinopyridin-3-yl)oxy)ethan-1-one]	225
COc1ccc(COc2cc(C3c4c(nc5cc(Cl)ccn45)CCN3C(=O)COc3ccc4ccccc4c3)ccc2OC)cc1 (centres unmarked) [Example 2.7.1, 1-(7-chloro-1-(4-methoxy-3-((4-methoxybenzyl)oxy)phenyl)-3,4-dihydroimidazo[1,2-a:5,4-c′]dipyridin-2(1H)-yl)-2-(naphthalen-2-yloxy)ethan-1-one]	60
COc1ccc(C2c3c(nc4cc(Cl)ccn34)CCN2C(=O)COc2ccc3ccccc3c2)cc1O (centres unmarked) [Example 2.8.1, 1-(7-chloro-1-(3-hydroxy-4-methoxyphenyl)-3,4-dihydroimidazo[1,2-a:5,4-c′]dipyridin-2(1H)-yl)-2-(naphthalen-2-yloxy)ethan-1-one]	219
COc1ccc(C2c3c(nc4cc(Cl)ccn34)CCN2C(=O)COc2ccc(CN3CCOCC3)cc2Cl)cc1O (centres unmarked) [Example 2.8.2, 1-(7-chloro-1-(3-hydroxy-4-methoxyphenyl)-3,4-dihydroimidazo[1,2-a:5,4-c′]dipyridin-2(1H)-yl)-2-(2-chloro-4-(morpholinomethyl)phenoxy)ethan-1-one]	154
COc1ccc(C2c3c(nc4cc(Cl)ccn34)CCN2C(=O)COc2ccc3ccccc3c2)cc1OC[C@@H](O)CO (stereo partly drawn) [Example 2.9.1, 1-(7-chloro-1-(3-((S)-2,3-dihydroxypropoxy)-4-methoxyphenyl)-3,4-dihydroimidazo[1,2-a:5,4-c′]dipyridin-2(1H)-yl)-2-(naphthalen-2-yloxy)ethan-1-one]	30
COc1ccc(C2c3c(nc4cc(Cl)ccn34)CCN2C(=O)COc2ccc3ccccc3c2)cc1OC[C@H](O)CO (stereo partly drawn) [Example 2.10.1, 1-(7-chloro-1-(3-((R)-2,3-dihydroxypropoxy)-4-methoxyphenyl)-3,4-dihydroimidazo[1,2-a:5,4-c′]dipyridin-2(1H)-yl)-2-(naphthalen-2-yloxy)ethan-1-one]	34
COc1ccc(C2c3c(nc4cc(Cl)ccn34)CCN2C(=O)COc2ccc(CN3CCOCC3)cc2Cl)cc1OC[C@H](O)CO (stereo partly drawn) [Example 2.10.2, 1-(7-chloro-1-(3-((R)-2,3-dihydroxypropoxy)-4-methoxyphenyl)-3,4-dihydroimidazo[1,2-a:5,4-c′]dipyridin-2(1H)-yl)-2-(2-chloro-4-(morpholinomethyl)phenoxy)ethan-1-one]	19
COCCCOc1cc(C2c3c(nc4cc(Cl)ccn34)CCN2C(=O)COc2ccc3ccccc3c2)ccc1OC (centres unmarked) [Example 2.11.1, 1-(7-chloro-1-(4-methoxy-3-(3-methoxypropoxy)phenyl)-3,4-dihydroimidazo[1,2-a:5,4-c′]dipyridin-2(1H)-yi)-2-(naphthalen-2-yloxy)ethan-1-one]	32
COc1ccc(C2c3c(nc4cc(Cl)ccn34)CCN2C(=O)COc2ccc3ccccc3c2)cc1OCCCO (centres unmarked) [Example 2.12.1, 1-(7-chloro-1-(3-(3-hydroxypropoxy)-4-methoxyphenyl)-3,4-dihydroimidazo[1,2-a:5,4-c′]dipyridin-2(1H)-yl)-2-(naphthalen-2-yloxy)ethan-1-one]	22
COc1ccc(C2c3c(nc4cc(Cl)ccn34)CCN2C(=O)COc2ccc3ccccc3c2)cc1OCCO (centres unmarked) [Example 2.13.1, 1-(7-chloro-1-(3-(2-hydroxyethoxy)-4-methoxyphenyl)-3,4-dihydroimidazo[1,2-a:5,4-c′]dipyridin-2(1H)-yl)-2-(naphthalen-2-yloxy)ethan-1-one]	34
COc1ccc(C2c3c(nc4cc(Cl)ccn34)CCN2C(=O)COc2ccc(CN3CCOCC3)cc2Cl)cc1OCCO (centres unmarked) [Example 2.13.2, 1-(7-chloro-1-(3-(2-hydroxyethoxy)-4-methoxyphenyl)-3,4-dihydroimidazo[1,2-a:5,4-c′]dipyridin-2(1H)-yl)-2-(2-chloro-4-(morpholinomethyl)phenoxy)ethan-1-one]	23
COC(=O)COc1cc(C2c3c(nc4cc(Cl)ccn34)CCN2C(=O)COc2ccc(CN3CCOCC3)cc2Cl)ccc1OC (centres unmarked) [Example 2.14.1, Methyl 2-(5-(7-chloro-2-(2-(2-chloro-4-(morpholinomethyl)phenoxy)acetyl)-1,2,3,4-tetrahydroimidazo[1,2-a:5,4-c′]dipyridin-1-yl)-2-methoxyphenoxy)acetate]	88
Cc1ccc(C2c3c(nc4cc(Cl)ccn34)CCN2C(=O)COc2ccc(NS(C)(=O)=O)nc2Cl)c(F)c1 (centres unmarked) [Example 2.15.1, N-(6-chloro-5-(2-(7-chloro-1-(2-fluoro-4-methylphenyl)-3,4-dihydroimidazo[1,2-a:5,4-c′]dipyridin-2(1H)-yl)-2-oxoethoxy)pyridin-2-yl)methanesulfonamide]	51
COc1ccc(C2c3c(nc4cc(C(F)(F)F)ccn34)CCN2C(=O)COc2ccc3ccccc3c2)cc1OC (centres unmarked) [Example 3.1.1, 1-(1-(3,4-dimethoxyphenyl)-7-(trifluoromethyl)-3,4-dihydroimidazo[1,2-a:5,4-c′]dipyridin-2(1H)-yl)-2-(naphthalen-2-yloxy)ethan-1-one]	15
COc1ccc(C2c3c(nc4cc(C(F)(F)F)ccn34)CCN2C(=O)COc2ccc(Cl)cc2Cl)cc1OC (centres unmarked) [Example 3.1.2, 2-(2,4-Dichlorophenoxy)-1-(1-(3,4-dimethoxyphenyl)-7-(trifluoromethyl)-3,4-dihydroimidazo[1,2-a:5,4-c′]dipyridin-2(1H)-yl)ethan-1-one]	30
COc1ccc(C2c3c(nc4cc(C(F)(F)F)ccn34)CCN2C(=O)COc2ccc(C(F)(F)F)cc2Cl)cc1OC (centres unmarked) [Example 3.1.3, 2-(2-chloro-4-(trifluoromethyl)phenoxy)-1-(1-(3,4-dimethoxyphenyl)-7-(trifluoromethyl)-3,4-dihydroimidazo[1,2-a:5,4-c′]dipyridin-2(1H)-yl)ethan-1-one]	36
COc1ccc(C2c3c(nc4cc(C(F)(F)F)ccn34)CCN2C(=O)COc2cc(C(F)(F)F)ccc2Cl)cc1OC (centres unmarked) [Example 3.1.4]	202
COc1ccc(C2c3c(nc4cc(C(F)(F)F)ccn34)CCN2C(=O)COc2ccccc2C)cc1OC (centres unmarked) [Example 3.1.5]	153
COc1ccc(C2c3c(nc4cc(C(F)(F)F)ccn34)CCN2C(=O)COc2ccc(C)cc2)cc1OC (centres unmarked) [Example 3.1.6, 1-(1-(3,4-dimethoxyphenyl)-7-(trifluoromethyl)-3,4-dihydroimidazo[1,2-a:5,4-c′]dipyridin-2(1H)-yl)-2-(p-tolyloxy)ethan-1-one]	71
COc1ccc(C2c3c(nc4cc(C(F)(F)F)ccn34)CCN2C(=O)COc2ccccc2C(F)(F)F)cc1OC (centres unmarked) [Example 3.1.7, 1-(1-(3,4-dimethoxyphenyl)-7-(trifluoromethyl)-3,4-dihydroimidazo[1,2-a:5,4-c′]dipyridin-2(1H)-yl)-2-(2-(trifluoromethyl)phenoxy)ethan-1-one]	29
COc1ccc(C2c3c(nc4cc(C(F)(F)F)ccn34)CCN2C(=O)COc2ccc(C(F)(F)F)cc2)cc1OC (centres unmarked) [Example 3.1.8]	132
COc1ccc(C2c3c(nc4cc(C(F)(F)F)ccn34)CCN2C(=O)COc2cccc(C(F)(F)F)c2)cc1OC (centres unmarked) [Example 3.1.9]	422
COc1ccc(C2c3c(nc4cc(C(F)(F)F)ccn34)CCN2C(=O)COc2ccc(OC(F)(F)F)cc2)cc1OC (centres unmarked) [Example 3.1.11]	199
COc1ccc(C2c3c(nc4cc(C(F)(F)F)ccn34)CCN2C(=O)COc2cc(C)ccc2Cl)cc1OC (centres unmarked) [Example 3.1.12, 2-(2-chloro-5-methylphenoxy)-1-(1-(3,4-dimethoxyphenyl)-7-(trifluoromethyl)-3,4-dihydroimidazo[1,2-a:5,4-c′]dipyridin-2(1H)-yl)ethan-1-one]	64
COc1ccc(C2c3c(nc4cc(C(F)(F)F)ccn34)CCN2C(=O)COc2cccc(C(F)(F)F)c2Cl)cc1OC (centres unmarked) [Example 3.1.13, 2-(2-chloro-3-(trifluoromethyl)phenoxy)-1-(1-(3,4-dimethoxyphenyl)-7-(trifluoromethyl)-3,4-dihydroimidazo[1,2-a:5,4-c′]dipyridin-2(1H)-yl)ethan-1-one]	19
COc1ccc(C2c3c(nc4cc(C(F)(F)F)ccn34)CCN2C(=O)COc2cc(F)ccc2Cl)cc1OC (centres unmarked) [Example 3.1.14]	103
